# Test results reported in US10160772B2, “5,6-dihydro-4H-benzo[b]thieno-[2,3-d]azepine derivatives” (PULMOCIDE LIMITED, priority 2014, dated 2018).
# Read-outs that look alike come from different tables or passages of the source.
# How the values were obtained:
# Type in all cases: cell-based
# RSV A2 strain = experiment: RSV A2-induced CPE in Hep2 cells; conditions: human respiratory syncytial virus; for IC50: HEp-2, 120 h, read-out: RSV A2 CPE IC50; for inhibition at 0.1 µg/mL: at 0.1 μg/mL
# Procedure: (§1) Biological Testing: Experimental Methods Assessment of RSV Induced CPE in Hep2 Cells
# (§2) Hep2 cells were seeded (10^3/well/50 μL) in 384-well plates (Catalogue number 353962, BD Falcon, Oxford, UK) in 5% serum free-DMEM containing 2 mM L-glutamine and 1 mM sodium pyruvate one day before infection. RSV A2 strain (#0709161v, NCPV, Public Health England, Wiltshire) or RSV B Washington strain (VR-1580, ATCC, Manassas, Va. 20108) virus solutions were prepared in serum free-DMEM with 2 mM L-glutamine and 1 mM sodium pyruvate, and then added (50 μL/well) to achieve a final virus concentration of 1 MOI for RSV A and 0.1MOI for RSV B. Simultaneously test compounds (0.5 μL DMSO solution) were added to 100 μL of Hep2 cell culture with virus solution to provide a final DMSO solution of 0.5%. Plates were incubated (37° C./5% CO2) for 5 days for studies using RSV A2 strain or 6 days for those using RSV B strain, and then resazurin sodium salt (5 μL of 0.03% solution; Sigma-Aldrich, Dorset, UK) was added to each well and the plate incubated for a further 6 hr (37° C. and 5% CO2). The fluorescence of each well [545 nm (excitation)/590 nm (emission)] was determined using a multi-scanner (Clariostar: BMG, Buckinghamshire, UK). The percentage inhibition for each well was calculated and the IC50, IC75 and IC90 values were calculated from the concentration-response curve generated for each test compound.
# RSV B Washington strain = experiment: RSV B-induced CPE in Hep2 cells; conditions: human respiratory syncytial virus; for IC50: HEp-2, 144 h, read-out: RSV B CPE IC50
# Procedure: as §1, §2
# [1] = test system: RSV A2 F-protein expression; experiment: RSV A2 F-protein expression in BEAS2B bronchial epithelial cells; conditions: human respiratory syncytial virus, BEAS-2B, 72 h, read-out: RSV A2 F-protein IC50
# Procedure: Assessment of RSV F Protein Expression in BEAS2B Bronchial Epithelial Cells
# An early event which follows the infection of epithelial cells by RSV is the expression of RSV F-protein on the cells' surface. BEAS2B cells (SV40-immortalised human bronchial epithelial cell line) were grown in 96 well plates. Once more than 70% confluent, cells were infected with RSV A2 (#0709161v, NCPV, Public Health England, Wiltshire) at an MOI of 0.01 in clear RPMI-1640 medium (Life technologies, Paisley, UK) with 2% FBS (Life technologies, Paisley, UK), and incubated for 3 days (37° C./5% CO2).
# Supernatant was aspirated and the cells were fixed with 4% formaldehyde (100 μL in PBS solution) for 20 min, washed 3 times with washing buffer (200 μL; PBS containing 0.05% Tween-20) and incubated with blocking solution (100 μL; 5% Marvel milk in PBS) for 1 hr. Cells were then washed with washing buffer (200 μL) and incubated for 1 hr at 37° C. with anti-RSV (2F7; mouse monoclonal, lot 160290, Cat. No. ab43812, Abcam plc, Cambridge, UK) F-fusion protein antibody (50 μL; prepared at a 1:1000 dilution in 5% milk/PBS-tween). After washing, cells were incubated with an HRP-conjugated anti-mouse IgG antibody (50 μL prepared at a 1:2000 dilution in 5% milk in PBS; lot 00095437, Cat. No. P0447, Dako UK Ltd, Cambridgeshire, UK) for 1 hr. Cells were washed twice with washing buffer and once with PBS. TMB substrate (100 μL; substrate reagent pack lot 320436, Cat. No. DY999, R&D Systems, Inc. Abingdon, UK) was then added and the reaction was stopped by the addition of aq sulfuric acid (50 μL; 2N). The resultant signal was determined colourimetrically (OD: 450 nm with a reference wavelength of 655 nm) in a microplate reader (Multiskan FC®, ThermoFisher Scientific). Cells were then washed and 1% crystal violet solution (50 μL; lot SLB4576, Cat. No. HT90132-1L, Sigma-Aldrich) was applied for 30 min. After washing with PBS (200 μL) 3 times, 1% SDS (100 μL) was added to each well, and plates were shaken lightly for 1 hr prior to reading the absorbance at 595 nm. The measured OD450-655 readings were corrected for cell number by dividing the OD450-655 by the OD595 readings. The percentage inhibition for each well was calculated and the IC50 value derived from the concentration-response curve generated for each test compound.
# [2] = Cell viability: resazurin assay in Hep2 cells; conditions: human, 5 days incubation
# Procedure: Cell Viability: Resazurin Assay Hep2 cells were seeded in 384-well plates (10^3/well/50 μL; BD Falcon Ref 353962) in FBS DMEM (5%, containing 2 mM L-glutamine and 1 mM sodium pyruvate) one day before experimentation. Serum-free DMEM (50 μL) was added to test wells while for control wells the media was removed and sterile water (100 μL) was added. Test compounds (0.5 μL DMSO solution) were added to give a final DMSO concentration of 0.5%. Hep2 cells were incubated with each test compound for 5 days (37° C./5% CO2 in 5% FBS) and then resazurin stock solution (5 μL; 0.03%) was added to each well and the plate incubated further for a further 6 hrs (37° C./5% CO2). The fluorescence of each well at 545 nm (excitation) and 590 nm (emission) was determined using a multi-scanner (Clariostar: BMG Labtech). The percentage loss of cell viability was calculated for each well relative to vehicle (0.5% DMSO) treatment. Where appropriate, a CC50 value was calculated from the concentration-response curve generated from the concentration-response curve for each test compound.
# [3] = Hep2 cells, RSV A2 1 MOI, 5 days, resazurin
# [4] = HEp-2, Hep2 cells, at 0.01 μg/mL (footnote 2), read-out: RSV A2 CPE % Inhibition
# [5] = Hep2 cells, RSV B Washington 0.1 MOI, 6 days, resazurin
# [6] = HEp-2, Hep2 cells, at 1 μg/mL, read-out: RSV B CPE % Inhibition
# [7] = HEp-2, Hep2 cells, read-out: RSV A2 CPE % Inhibition
SMILES,IC50 (RSV A2 strain; [3]) [nM],inhibition at 0.01 µg/mL (RSV A2 strain; [4]) [%],IC50 (RSV B Washington strain; [5]) [nM],inhibition at 1 µg/mL (RSV B Washington strain; [6]) [%],IC50 [1] [nM],CC50 at 5 days [2] [nM],IC50 (RSV A2 strain) [nM],"inhibition at 0.01 µg/mL (RSV A2 strain; HEp-2, read-out: RSV A2 CPE % Inhibition) [%]",IC50 (RSV B Washington strain) [nM],"inhibition at 1 µg/mL (RSV B Washington strain; HEp-2, read-out: RSV B CPE % Inhibition) [%]",inhibition at 0.1 µg/mL (RSV A2 strain; [7]) [%]
"Cc1ccc(C(=O)Nc2ccc(C(=O)N3CCc4cc(-c5nc6ccccc6[nH]5)sc4-c4ccccc43)cc2)c(N2CC3(CCOCC3)C2)n1 [Example 2, N-(4-(2-(1H-Benzo[d]imidazol-2-yl)-5,6-dihydro-4H-benzo[b]thieno[2,3-d]azepine-6-carbonyl)phenyl)-6-methyl-2-(7-oxa-2-azaspiro[3,5]nonan-2-yl)nicotinamide]",0.23,90,9.6,100,1.6,> 14700,–,–,–,–,–
"CCc1cccc2nc(-c3cc4c(s3)-c3ccccc3N(C(=O)c3ccc(NC(=O)c5cc(C)cnc5N5CC6(CCOCC6)C5)cc3)CC4)[nH]c12 [Example 3, N-(4-(2-(7-Ethyl-1H-benzo[d]imidazol-2-yl)-5,6-dihydro-4H-benzo[b]thieno[2,3-d]azepine-6-carbonyl)phenyl)-5-methyl-2-(7-oxa-2-azaspiro[3.5]nonan-2-yl)nicotinamide]",–,–,–,–,0.78,> 14100,2.6,100,8.6,100,–
"C#Cc1cnc(N2CC3(CCOCC3)C2)c(C(=O)Nc2ccc(C(=O)N3CCc4cc(-c5nc6ccccc6[nH]5)sc4-c4ccccc43)cc2)c1 [Example 5, N-(4-(2-(1H-Benzo[d]imidazol-2-yl)-5,6-dihydro-4H-benzo[b]thieno[2,3-d]azepine-6-carbonyl)phenyl)-5-ethynyl-2-(7-oxa-2-azaspiro[3,5]nonan-2-yl)nicotinamide]",6.9,100,36.1,92,0.11,> 14500,–,–,–,–,–
"O=C(Nc1ccc(C(=O)N2CCc3cc(-c4nc5ccccc5[nH]4)sc3-c3ccccc32)cc1)c1cc(C2CC2)cnc1N1CC2(CCOCC2)C1 [Example 6, N-(4-(2-(1H-Benzo[d]imidazol-2-yl)-5,6-dihydro-4H-benzo[b]thieno[2,3-d]azepine-6-carbonyl)phenyl)-5-cyclopropyl-2-(7-oxa-2-azaspiro[3,5]nonan-2-yl)nicotinamide]",2.6,100,14.9,100,0.22,> 14100,–,–,–,–,–
O=C(Nc1ccc(C(=O)N2CCc3cc(-c4nc5ccccc5[nH]4)sc3-c3ccccc32)cc1)c1cccnc1N1CC2(CCOCC2)C1 [Example 7],0.12,–,28.7,100,0.94,> 15000,–,–,–,–,100
"Cc1cc(C(=O)Nc2ccc(C(=O)N3CCc4cc(-c5nc6cccc(F)c6[nH]5)sc4-c4ccccc43)cc2)c(N2CC3(CCOCC3)C2)nc1C [Example 22, N-(4-(2-(7-fluoro-1H-benzo[d]imidazol-2-yl)-5,6-dihydro-4H-benzo[b]thieno[2,3-d]azepine-6-carbonyl)phenyl)-5,6-dimethyl-2-(7-oxa-2-azaspiro[3.5]nonan-2-yl)nicotinamide]",1.6,90,14,100,–,> 14000,–,–,–,–,–
"Cc1cc(C(=O)Nc2ccc(C(=O)N3CCc4cc(-c5nc6cccc(Cl)c6[nH]5)sc4-c4ccccc43)cc2)c(N2CC3(CCOCC3)C2)nc1C [Example 23, N-(4-(2-(7-chloro-1H-benzo[d]imidazol-2-yl)-5,6-dihydro-4H-benzo[b]thieno[2,3-d]azepine-6-carbonyl)phenyl)-5,6-dimethyl-2-(7-oxa-2-azaspiro[3.5]nonan-2-yl)nicotinamide]",0.75,–,103,100,–,> 13700,–,–,–,–,100
Cc1cc(C(=O)Nc2ccc(C(=O)N3CCc4cc(-c5nc6cccc(C)c6[nH]5)sc4-c4ccccc43)cc2)c(N2CC3(CCOCC3)C2)nc1C [Example 24],0.85,–,27.3,100,–,> 14100,–,–,–,–,100
"Cc1cc(C(=O)Nc2ccc(C(=O)N3CCc4cc(-c5nc6cccc(C#N)c6[nH]5)sc4-c4ccccc43)cc2)c(N2CC3(CCOCC3)C2)nc1C [Example 25, N-(4-(2-(7-cyano-1H-benzo[d]imidazol-2-yl)-5,6-dihydro-4H-benzo[b]thieno[2,3-d]azepine-6-carbonyl)phenyl)-5,6-dimethyl-2-(7-oxa-2-azaspiro[3.5]nonan-2-yl)nicotinamide]",0.69,100,15.8,100,–,> 13900,–,–,–,–,–
"Cc1cnc(N2CC3(CCOCC3)C2)c(C(=O)Nc2ccc(C(=O)N3CCc4cc(-c5nc6ccccc6[nH]5)sc4-c4ccccc43)c(F)c2)c1 [Example 26, N-(4-(2-(1H-benzo[d]imidazol-2-yl)-5,6-dihydro-4H-benzo[b]thieno[2,3-d]azepine-6-carbonyl)-3-fluorophenyl)-5-methyl-2-(7-oxa-2-azaspiro[3.5]nonan-2-yl)nicotinamide]",0.27,100,12,100,–,> 14300,–,–,–,–,–
"Cc1cnc(N2CC3(CCOCC3)C2)c(C(=O)Nc2ccc(C(=O)N3CCc4cc(-c5nc6cccc(C)c6[nH]5)sc4-c4ccccc43)c(F)c2)c1 [Example 27, N-(3-fluoro-4-(2-(7-methyl-1H-benzo[d]imidazol-2-yl)-5,6-dihydro-4H-benzo[b]thieno[2,3-d]azepine-6-carbonyl)phenyl)-5-methyl-2-(7-oxa-2-azaspiro[3.5]nonan-2-yl)nicotinamide]",0.29,–,15,80,–,> 14000,–,–,–,–,90
